# In patent US9518061B2, “Substituted pyrazolylpyrazole derivative and use of same as herbicide” (KYOYU AGRI CO., LTD., priority 2013, dated 2016):
# Tests used:
# Format in all cases: in vivo
# Monochoria vaginalis = experiment: Paddy herbicidal activity test; details: irrigated paddy pot, 30 days
# Description: (§1) 1. Paddy Herbicidal Activity Test
# (§2) Rice paddy soil was filled into a 1/10000 are pot followed by the addition of suitable amounts of water and chemical fertilizer, kneading, seeding with Echinochloa crus-galli, Monochoria vaginalis and Scirpus juncoides and maintaining in an irrigated state at a water depth of 3 cm.
# (§3) Wettable powder of Target Compound (I) shown in Table 1 prepared in compliance with the preparation examples were diluted with a suitable amount of water, rice plants in the 2.0 leaf stage were transplanted during 3.5 leaf stage of Echinochloa crus-galli, and treated by dropping in chemical in the prescribed amount per are using a pipette.
# (§4) After treating for 30 days in a glass greenhouse at an average atmospheric temperature of 30° C., the herbicidal efficacy thereof was investigated.
# (§5) Evaluation of herbicidal efficacy was carried out by comparing growth inhibition rate (%) with an untreated group, while evaluation of phytotoxicity was carried out by comparing growth inhibition rate (%) with the state of a complete eradication group, and were evaluated at 11 levels indicated below.
# Echinochloa crus-galli = experiment: Paddy herbicidal activity test; details: irrigated paddy pot, treated at 3.5 leaf stage of Echinochloa crus-galli, 30 days
# Description: as §1, §2, §3, §4, §5
# Scirpus juncoides = experiment: Paddy herbicidal activity test; details: irrigated paddy pot, 30 days
# Description: as §1, §2, §3, §4, §5
# Rice plants = experiment: Paddy herbicidal activity test, phytotoxicity to transplanted rice; details: rice transplanted in 2.0 leaf stage, 30 days
# Description: as §1, §2, §3, §4, §5
smiles,measurement,setting,value
N#Cc1cnn(-c2nn3c(c2Br)CCCC3)c1N(CCC(F)(F)F)C(=O)C(F)(F)F [Compound 18],herbicidal efficacy (growth inhibition rate level) Monochoria vaginalis,Monochoria vaginalis; 1g a.i./10a,7 (70% to less than 80%)
same,herbicidal efficacy (growth inhibition rate level) Monochoria vaginalis,Monochoria vaginalis; 5g a.i./10a,8 (80% to less than 90%)
same,herbicidal efficacy (growth inhibition rate level) Echinochloa crus-galli,Echinochloa crus-galli; 1g a.i./10a,9 (90% to less than 100%)
same,herbicidal efficacy (growth inhibition rate level) Echinochloa crus-galli,Echinochloa crus-galli; 5g a.i./10a,10 (100%)
same,herbicidal efficacy (growth inhibition rate level) Scirpus juncoides,Scirpus juncoides; 1g a.i./10a,9 (90% to less than 100%)
same,herbicidal efficacy (growth inhibition rate level) Scirpus juncoides,Scirpus juncoides; 5g a.i./10a,9 (90% to less than 100%)
same,phytotoxicity (growth inhibition rate level) Rice plants,Rice plants; 1g a.i./10a,0 (0 (exponent): 0% to less than 10% (growth inhibition rate))
same,phytotoxicity (growth inhibition rate level) Rice plants,Rice plants; 5g a.i./10a,1 (10% to less than 20%)
N#Cc1cnn(-c2nn3c(c2Cl)CCCC3)c1N(CC(F)(F)F)C(=O)C(F)(F)F [Compound 8],herbicidal efficacy (growth inhibition rate level) Monochoria vaginalis,Monochoria vaginalis; 1g a.i./10a,9 (90% to less than 100%)
same,herbicidal efficacy (growth inhibition rate level) Monochoria vaginalis,Monochoria vaginalis; 5g a.i./10a,9 (90% to less than 100%)
same,herbicidal efficacy (growth inhibition rate level) Echinochloa crus-galli,Echinochloa crus-galli; 1g a.i./10a,8 (80% to less than 90%)
same,herbicidal efficacy (growth inhibition rate level) Echinochloa crus-galli,Echinochloa crus-galli; 5g a.i./10a,9 (90% to less than 100%)
same,herbicidal efficacy (growth inhibition rate level) Scirpus juncoides,Scirpus juncoides; 1g a.i./10a,9 (90% to less than 100%)
same,herbicidal efficacy (growth inhibition rate level) Scirpus juncoides,Scirpus juncoides; 5g a.i./10a,10 (100%)
same,phytotoxicity (growth inhibition rate level) Rice plants,Rice plants; 1g a.i./10a,0 (0 (exponent): 0% to less than 10% (growth inhibition rate))
same,phytotoxicity (growth inhibition rate level) Rice plants,Rice plants; 5g a.i./10a,0 (0 (exponent): 0% to less than 10% (growth inhibition rate))
COCCN(C(=O)C(F)(F)F)c1c(C#N)cnn1-c1nn2c(c1Br)CCCC2 [Compound 13],herbicidal efficacy (growth inhibition rate level) Monochoria vaginalis,Monochoria vaginalis; 1g a.i./10a,8 (80% to less than 90%)
same,herbicidal efficacy (growth inhibition rate level) Monochoria vaginalis,Monochoria vaginalis; 5g a.i./10a,9 (90% to less than 100%)
same,herbicidal efficacy (growth inhibition rate level) Echinochloa crus-galli,Echinochloa crus-galli; 1g a.i./10a,9 (90% to less than 100%)
same,herbicidal efficacy (growth inhibition rate level) Echinochloa crus-galli,Echinochloa crus-galli; 5g a.i./10a,9 (90% to less than 100%)
same,herbicidal efficacy (growth inhibition rate level) Scirpus juncoides,Scirpus juncoides; 1g a.i./10a,7 (70% to less than 80%)
same,herbicidal efficacy (growth inhibition rate level) Scirpus juncoides,Scirpus juncoides; 5g a.i./10a,8 (80% to less than 90%)
same,phytotoxicity (growth inhibition rate level) Rice plants,Rice plants; 1g a.i./10a,0 (0 (exponent): 0% to less than 10% (growth inhibition rate))
same,phytotoxicity (growth inhibition rate level) Rice plants,Rice plants; 5g a.i./10a,1 (10% to less than 20%)
COCCN(C(=O)C(F)(F)F)c1c([N+](=O)[O-])cnn1-c1nn2c(c1Br)CCCC2 [Compound 23],herbicidal efficacy (growth inhibition rate level) Monochoria vaginalis,Monochoria vaginalis; 1g a.i./10a,8 (80% to less than 90%)
same,herbicidal efficacy (growth inhibition rate level) Monochoria vaginalis,Monochoria vaginalis; 5g a.i./10a,8 (80% to less than 90%)
same,herbicidal efficacy (growth inhibition rate level) Echinochloa crus-galli,Echinochloa crus-galli; 1g a.i./10a,7 (70% to less than 80%)
same,herbicidal efficacy (growth inhibition rate level) Echinochloa crus-galli,Echinochloa crus-galli; 5g a.i./10a,8 (80% to less than 90%)
same,herbicidal efficacy (growth inhibition rate level) Scirpus juncoides,Scirpus juncoides; 1g a.i./10a,8 (80% to less than 90%)
same,herbicidal efficacy (growth inhibition rate level) Scirpus juncoides,Scirpus juncoides; 5g a.i./10a,8 (80% to less than 90%)
same,phytotoxicity (growth inhibition rate level) Rice plants,Rice plants; 1g a.i./10a,0 (0 (exponent): 0% to less than 10% (growth inhibition rate))
same,phytotoxicity (growth inhibition rate level) Rice plants,Rice plants; 5g a.i./10a,0 (0 (exponent): 0% to less than 10% (growth inhibition rate))
N#Cc1cnn(-c2nn3c(c2Cl)CCCC3)c1N(CCCCl)C(=O)C(F)(F)F [Compound 3],herbicidal efficacy (growth inhibition rate level) Monochoria vaginalis,Monochoria vaginalis; 1g a.i./10a,7 (70% to less than 80%)
same,herbicidal efficacy (growth inhibition rate level) Monochoria vaginalis,Monochoria vaginalis; 5g a.i./10a,8 (80% to less than 90%)
same,herbicidal efficacy (growth inhibition rate level) Echinochloa crus-galli,Echinochloa crus-galli; 1g a.i./10a,8 (80% to less than 90%)
same,herbicidal efficacy (growth inhibition rate level) Echinochloa crus-galli,Echinochloa crus-galli; 5g a.i./10a,9 (90% to less than 100%)
same,herbicidal efficacy (growth inhibition rate level) Scirpus juncoides,Scirpus juncoides; 1g a.i./10a,8 (80% to less than 90%)
same,herbicidal efficacy (growth inhibition rate level) Scirpus juncoides,Scirpus juncoides; 5g a.i./10a,8 (80% to less than 90%)
same,phytotoxicity (growth inhibition rate level) Rice plants,Rice plants; 1g a.i./10a,1 (10% to less than 20%)
same,phytotoxicity (growth inhibition rate level) Rice plants,Rice plants; 5g a.i./10a,1 (10% to less than 20%)
N#Cc1cnn(-c2nn3c(c2Cl)CCCC3)c1N(CCC(F)(F)F)C(=O)C(F)(F)C(F)(F)F [Compound 7],herbicidal efficacy (growth inhibition rate level) Monochoria vaginalis,Monochoria vaginalis; 1g a.i./10a,7 (70% to less than 80%)
same,herbicidal efficacy (growth inhibition rate level) Monochoria vaginalis,Monochoria vaginalis; 5g a.i./10a,9 (90% to less than 100%)
same,herbicidal efficacy (growth inhibition rate level) Echinochloa crus-galli,Echinochloa crus-galli; 1g a.i./10a,9 (90% to less than 100%)
same,herbicidal efficacy (growth inhibition rate level) Echinochloa crus-galli,Echinochloa crus-galli; 5g a.i./10a,9 (90% to less than 100%)
same,herbicidal efficacy (growth inhibition rate level) Scirpus juncoides,Scirpus juncoides; 1g a.i./10a,8 (80% to less than 90%)
same,herbicidal efficacy (growth inhibition rate level) Scirpus juncoides,Scirpus juncoides; 5g a.i./10a,8 (80% to less than 90%)
same,phytotoxicity (growth inhibition rate level) Rice plants,Rice plants; 1g a.i./10a,0 (0 (exponent): 0% to less than 10% (growth inhibition rate))
same,phytotoxicity (growth inhibition rate level) Rice plants,Rice plants; 5g a.i./10a,0 (0 (exponent): 0% to less than 10% (growth inhibition rate))
N#Cc1cnn(-c2nn3c(c2Cl)CCCC3)c1N(CCC(F)(F)F)C(=O)C(F)(F)F [Compound 4],herbicidal efficacy (growth inhibition rate level) Monochoria vaginalis,Monochoria vaginalis; 1g a.i./10a,8 (80% to less than 90%)
same,herbicidal efficacy (growth inhibition rate level) Monochoria vaginalis,Monochoria vaginalis; 5g a.i./10a,8 (80% to less than 90%)
same,herbicidal efficacy (growth inhibition rate level) Echinochloa crus-galli,Echinochloa crus-galli; 1g a.i./10a,9 (90% to less than 100%)
same,herbicidal efficacy (growth inhibition rate level) Echinochloa crus-galli,Echinochloa crus-galli; 5g a.i./10a,10 (100%)
same,herbicidal efficacy (growth inhibition rate level) Scirpus juncoides,Scirpus juncoides; 1g a.i./10a,9 (90% to less than 100%)
same,herbicidal efficacy (growth inhibition rate level) Scirpus juncoides,Scirpus juncoides; 5g a.i./10a,9 (90% to less than 100%)
same,phytotoxicity (growth inhibition rate level) Rice plants,Rice plants; 1g a.i./10a,0 (0 (exponent): 0% to less than 10% (growth inhibition rate))
same,phytotoxicity (growth inhibition rate level) Rice plants,Rice plants; 5g a.i./10a,0 (0 (exponent): 0% to less than 10% (growth inhibition rate))
N#Cc1cnn(-c2nn3c(c2Br)CCCC3)c1N(CCCCl)C(=O)C(F)(F)F [Compound 17],herbicidal efficacy (growth inhibition rate level) Monochoria vaginalis,Monochoria vaginalis; 1g a.i./10a,9 (90% to less than 100%)
same,herbicidal efficacy (growth inhibition rate level) Monochoria vaginalis,Monochoria vaginalis; 5g a.i./10a,9 (90% to less than 100%)
same,herbicidal efficacy (growth inhibition rate level) Echinochloa crus-galli,Echinochloa crus-galli; 1g a.i./10a,8 (80% to less than 90%)
same,herbicidal efficacy (growth inhibition rate level) Echinochloa crus-galli,Echinochloa crus-galli; 5g a.i./10a,8 (80% to less than 90%)
same,herbicidal efficacy (growth inhibition rate level) Scirpus juncoides,Scirpus juncoides; 1g a.i./10a,7 (70% to less than 80%)
same,herbicidal efficacy (growth inhibition rate level) Scirpus juncoides,Scirpus juncoides; 5g a.i./10a,8 (80% to less than 90%)
same,phytotoxicity (growth inhibition rate level) Rice plants,Rice plants; 1g a.i./10a,0 (0 (exponent): 0% to less than 10% (growth inhibition rate))
same,phytotoxicity (growth inhibition rate level) Rice plants,Rice plants; 5g a.i./10a,0 (0 (exponent): 0% to less than 10% (growth inhibition rate))
COCCCN(C(=O)C(F)(F)F)c1c(C#N)cnn1-c1nn2c(c1Cl)CCCC2 [Compound 6],herbicidal efficacy (growth inhibition rate level) Monochoria vaginalis,Monochoria vaginalis; 1g a.i./10a,8 (80% to less than 90%)
same,herbicidal efficacy (growth inhibition rate level) Monochoria vaginalis,Monochoria vaginalis; 5g a.i./10a,9 (90% to less than 100%)
same,herbicidal efficacy (growth inhibition rate level) Echinochloa crus-galli,Echinochloa crus-galli; 1g a.i./10a,9 (90% to less than 100%)
same,herbicidal efficacy (growth inhibition rate level) Echinochloa crus-galli,Echinochloa crus-galli; 5g a.i./10a,10 (100%)
same,herbicidal efficacy (growth inhibition rate level) Scirpus juncoides,Scirpus juncoides; 1g a.i./10a,7 (70% to less than 80%)
same,herbicidal efficacy (growth inhibition rate level) Scirpus juncoides,Scirpus juncoides; 5g a.i./10a,8 (80% to less than 90%)
same,phytotoxicity (growth inhibition rate level) Rice plants,Rice plants; 1g a.i./10a,0 (0 (exponent): 0% to less than 10% (growth inhibition rate))
same,phytotoxicity (growth inhibition rate level) Rice plants,Rice plants; 5g a.i./10a,0 (0 (exponent): 0% to less than 10% (growth inhibition rate))
CCOCCN(C(=O)C(F)(F)F)c1c(C#N)cnn1-c1nn2c(c1Cl)CCCC2 [Compound 5],herbicidal efficacy (growth inhibition rate level) Monochoria vaginalis,Monochoria vaginalis; 1g a.i./10a,8 (80% to less than 90%)
same,herbicidal efficacy (growth inhibition rate level) Monochoria vaginalis,Monochoria vaginalis; 5g a.i./10a,8 (80% to less than 90%)
same,herbicidal efficacy (growth inhibition rate level) Echinochloa crus-galli,Echinochloa crus-galli; 1g a.i./10a,9 (90% to less than 100%)
same,herbicidal efficacy (growth inhibition rate level) Echinochloa crus-galli,Echinochloa crus-galli; 5g a.i./10a,9 (90% to less than 100%)
same,herbicidal efficacy (growth inhibition rate level) Scirpus juncoides,Scirpus juncoides; 1g a.i./10a,8 (80% to less than 90%)
same,herbicidal efficacy (growth inhibition rate level) Scirpus juncoides,Scirpus juncoides; 5g a.i./10a,9 (90% to less than 100%)
same,phytotoxicity (growth inhibition rate level) Rice plants,Rice plants; 1g a.i./10a,0 (0 (exponent): 0% to less than 10% (growth inhibition rate))
same,phytotoxicity (growth inhibition rate level) Rice plants,Rice plants; 5g a.i./10a,1 (10% to less than 20%)
COCCCN(C(=O)C(F)(F)F)c1c(C#N)cnn1-c1nn2c(c1Br)CCCC2 [Compound 15],herbicidal efficacy (growth inhibition rate level) Monochoria vaginalis,Monochoria vaginalis; 1g a.i./10a,8 (80% to less than 90%)
same,herbicidal efficacy (growth inhibition rate level) Monochoria vaginalis,Monochoria vaginalis; 5g a.i./10a,8 (80% to less than 90%)
same,herbicidal efficacy (growth inhibition rate level) Echinochloa crus-galli,Echinochloa crus-galli; 1g a.i./10a,9 (90% to less than 100%)
same,herbicidal efficacy (growth inhibition rate level) Echinochloa crus-galli,Echinochloa crus-galli; 5g a.i./10a,10 (100%)
same,herbicidal efficacy (growth inhibition rate level) Scirpus juncoides,Scirpus juncoides; 1g a.i./10a,8 (80% to less than 90%)
same,herbicidal efficacy (growth inhibition rate level) Scirpus juncoides,Scirpus juncoides; 5g a.i./10a,9 (90% to less than 100%)
same,phytotoxicity (growth inhibition rate level) Rice plants,Rice plants; 1g a.i./10a,0 (0 (exponent): 0% to less than 10% (growth inhibition rate))
same,phytotoxicity (growth inhibition rate level) Rice plants,Rice plants; 5g a.i./10a,1 (10% to less than 20%)
CCOCCN(C(=O)C(F)(F)F)c1c(C#N)cnn1-c1nn2c(c1Br)CCCC2 [Compound 14],herbicidal efficacy (growth inhibition rate level) Monochoria vaginalis,Monochoria vaginalis; 1g a.i./10a,7 (70% to less than 80%)
same,herbicidal efficacy (growth inhibition rate level) Monochoria vaginalis,Monochoria vaginalis; 5g a.i./10a,8 (80% to less than 90%)
same,herbicidal efficacy (growth inhibition rate level) Echinochloa crus-galli,Echinochloa crus-galli; 1g a.i./10a,9 (90% to less than 100%)
same,herbicidal efficacy (growth inhibition rate level) Echinochloa crus-galli,Echinochloa crus-galli; 5g a.i./10a,9 (90% to less than 100%)
same,herbicidal efficacy (growth inhibition rate level) Scirpus juncoides,Scirpus juncoides; 1g a.i./10a,8 (80% to less than 90%)
same,herbicidal efficacy (growth inhibition rate level) Scirpus juncoides,Scirpus juncoides; 5g a.i./10a,9 (90% to less than 100%)
same,phytotoxicity (growth inhibition rate level) Rice plants,Rice plants; 1g a.i./10a,1 (10% to less than 20%)
same,phytotoxicity (growth inhibition rate level) Rice plants,Rice plants; 5g a.i./10a,1 (10% to less than 20%)
